Source: patent US20230263710A1, “ORAL CARE AGENT” (OSAKA UNIVERSITY, priority 2020, published 2023)
Where two headings read alike, the source gives them in different places.

Experiment: Lewis acidity measuring method (1): reaction rate constant of reaction between CoTPP and oxygen in the presence of a Lewis acid
Format: physicochemical

Row | Compound | kcat (reaction rate constant of reaction between CoTPP and oxygen in the presence of a Lewis acid) | kcat (reaction rate constant of reaction between CoTPP and oxygen in the presence of a Lewis acid) (acetonitrile, saturated O2, room temperature)
1 | CCCC[N+](CCCC)(CCCC)CCCC.F[P-](F)(F)(F)(F)F [tetrabutylammonium hexafluorophosphate] | >0.1 M^−2 s^−1 | 
2 | benzalkonium chloride |  | 0.18 M^−2 s^−1
3 | benzethonium chloride | 0.24 M^−2 s^−1 | 
